Here are results for one molecule from patent publication US10568918B2, “Composition comprising chlorella extract for preventing or treating liver disease” (GANGNEUNG-WONGJU NATIONAL UNIVERSITY INDUSTRY ACADEMY …, priority 2011, dated 2020).

Values joined by “and” are separate entries in the source; they are usually repeats but may differ in a detail not shown here. Equal values may be shown once.

In experiment [1] the test system is quinone reductase. Description: Quinone reductase activity induction in Hepa1c1c7 liver cancer cells. It counts as cell-based, white rat. As to conditions: sulforaphane at 5 μM, 5 × 10^3 cell/wells. As to the method: For the ethanol extract and the ingredients of the isolated fractions, the quinone reductase activity induction was analyzed. In order to measure the quinone reductase activity induction effect of the fractions obtained from the chlorella, the experiment was conducted using a liver cancer cell line (Hepa1c1c7) of a white rat.
First of all, a-MEM (minimum essential medium)/10% FBS (fetal bovine serum) solution was mixed with a liver cell culture solution to make the cell number of 1×10^5 cells/Ml, and the resulting solution 100 μl was added to a 96-well plate followed by incubating for 24 hours under a condition of 5% CO2 and 37° C. […]
The protein solution 50 μl and reaction solution A (49 Ml 25 mM Tris buffer, 34 mg BSA, 0.34 Ml 1.5% tween-20 solution, 0.34 Ml co-enzyme solution, 100 unit glucose-6-phosphate dehydrogenase, 15 mg MTT, 50 μl 50 mM menadione) 200 μl were mixed together, and the absorbance increasing rate was measure at 610 nm using a microplate reader. The protein amount was measured at 595 nm using Bradford solution. […] The quinone reductase activity of the extract and the fraction was expressed as CD (the concentration of the sample where the quinone reductase activity of the sample-treated cell becomes twice).

Experiment [2] relates to liver injury-induced animal models. Kind of experiment: ALT, AST, γ-GT and LDH contents in blood serum of ethanol liver-injured animal model. It counts as in vivo, SD rats. The conditions noted are these: 10 mg/kg in feed, 10 days. As to the method: The chlorella ethanol extract (CH) was used. The CH was dissolved in ethanol, and mixed with AlN-76 diet to be a daily intake of 50 mg or 100 mg per kg of a test animal weight and supplied to the animal. Specific pathogen free male SD rats of 5-week-old were purchased from Orient Bio Inc. (Seongnam, South Korea). After inspection and adaptation for 1 week, healthy animals without weight loss were selected and used for the test. Test animals were bred under a condition of temperature: 23±3, relative humidity: 50±10%, air change rate: 10-15 times/hour, lighting time: 12 hours (08:00-20:00) and luminous intensity: 150-300 Lux. During adaptation period of 1 week, the test animals were freely fed with solid feed for test animal (Superfeed Co., Ltd., Wonju, South Korea) and drinking water. […] The feed intake was measured every two days, and body weight was measured every week from the day of starting the oral administration of ethanol (0 day) to the final day of the experiment. […] To analyze contents of ALT, AST, γ-GT and LDH in a blood serum isolated from the blood collected on the day of the autopsy, alanine aminotransferase (ALT), aspartate aminotransferase (AST), gamma-glutamyl transferase (γ-GT) and lactic dehydrogenase (LDH) were analyzed using a blood biochemistry analyzer (KoneLab 20, Thermo Fisher Scientific, Waltham, […]).

Experiment [3] has the same test system. Description: SOD, CAT, GPx, ADH and ALDH activities in liver cytosol of ethanol liver-injured animal model. It counts as in vivo, SD rats. The conditions noted are these: 10 mg/kg in feed, 10 days.
Experimental: After inspection and adaptation for 1 week, healthy animals without weight loss were selected and used for the test. Test animals were bred under a condition of temperature: 23±3, relative humidity: 50±10%, air change rate: 10-15 times/hour, lighting time: 12 hours (08:00-20:00) and luminous intensity: 150-300 Lux. During adaptation period of 1 week, the test animals were freely fed with solid feed for test animal (Superfeed Co., Ltd., Wonju, South Korea) and drinking water. After the adaptation period of 1 week, healthy animals were selected, and divided to 5 groups by randomized block design. […] Test feeds were prepared by mixing each test compounds to the feed to the daily feeding amount of 50 or 100 mg per 1 kg of test animal weight as described above, and fed. […] The feed intake was measured every two days, and body weight was measured every week from the day of starting the oral administration of ethanol (0 day) to the final day of the experiment.
1 g liver tissue was homogenized with 0.25 M sucrose (pH 7.0). […] The activities of superoxide dismutase (SOD), catalase (CAT) and glutathione peroxidase (GPx) were measured using a kit of Cayman chemical company (Ann Arbor, Mich., USA). The activity of alcohol dehydrogenase (ADH) was measured by adding 0.2 M ethanol 10 μl, 0.05 M semicarbazide HCl 10 μl and 0.1 M NAD (in 0.01 M HCl) 10 μl to 0.1 M Tris-HCl buffer (pH 8.5) 160 μl followed by adding the cytosolic zymogen 10 μl thereto at 340 nm. […] The activity of acetaldehyde dehydrogenase (ALDH) was measured by adding 1 M KCl 10 μl, 0.1 M pyrazole 10 μl, 1 M 2-mercaptoethanol 10 μl, 0.1 M propione aldehyde 10 μl and 0.1 M NAD (in 0.01 M HCl) 10 μl to 0.2 M Tris-HCl buffer (pH 8.3) 150 μl followed by adding the cytosolic zymogen 10 μl at 340 nm, and the enzyme protein assay was conducted by a method of Lowry et al. (Lowry O H et al., 1957, J Biol Chem 193: 265-276).
Experiment [4] has the same test system. Kind of experiment: Contents of total lipid, triglyceride and total cholesterol in liver tissue of ethanol liver-injured animal model. It counts as in vivo, SD rats. The conditions noted are these: 10 mg/kg.
Experimental: Specific pathogen free male SD rats of 5-week-old were purchased from Orient Bio Inc. (Seongnam, South Korea). After inspection and adaptation for 1 week, healthy animals without weight loss were selected and used for the test. Test animals were bred under a condition of temperature: 23±3, relative humidity: 50±10%, air change rate: 10-15 times/hour, lighting time: 12 hours (08:00-20:00) and luminous intensity: 150-300 Lux. During adaptation period of 1 week, the test animals were freely fed with solid feed for test animal (Superfeed Co., Ltd., Wonju, South Korea) and drinking water. After the adaptation period of 1 week, healthy animals were selected, and divided to 5 groups by randomized block design. […] Test feeds were prepared by mixing each test compounds to the feed to the daily feeding amount of 50 or 100 mg per 1 kg of test animal weight as described above, and fed. In order to induce the fatty liver by ethanol, 20% ethyl alcohol 5 g per kg (body weight) was orally administered twice a day (morning and afternoon) for 16 days. The feeds containing the test compounds were fed for 10 days after 17th day of the ethanol administration, and the ethanol was orally administered together with the feed continuously. During the test period, drinking water was freely supplied. The feed intake was measured every two days, and body weight was measured every week from the day of starting the oral administration of ethanol (0 day) to the final day of the experiment.
Total lipid content in the liver tissue was analyzed by homogenizing 1 g liver tissue in a saline 3 ml followed by homogenizing again with CM solution (Chloroform:Methanol=2:1) 9 ml. The homogenate was centrifuged at 3,000 rpm for 10 min, and the lower layer was collected and evaporated followed by measuring the total lipid content using a precision scale. The measured total lipid was dissolved in isopropanol, and the triglyceride content and the total choresterol content were measured by a quantitative analysis kit using an enzyme method (Asan Pharm. Co., Ltd., Hwaseong, South Korea).
Experiment [5] has the same test system. Kind of experiment: Content of lipid peroxide in liver microsome of ethanol liver-injured animal model. It counts as in vivo, SD rats. The conditions noted are these: EtOH +, 10 mg/kg, mean ± SEM. On the technique in general: Liver microsomes are a subcellular fraction often used to study metabolism.
Experimental: 1 g Liver tissue was homogenized in 0.25 M sucrose (pH 7.0). […] The content of the lipid peroxide was measured by a lipid peroxide measuring kit (BioAssay Systems, Hayward, Calif., USA), and the protein quantification was conducted by a method of Lowry et al. (Lowry O H et al., 1957, J Biol Chem 193: 265-276).
The test system is the same in experiment [6]. Description: Contents of triglyceride, total cholesterol and HDL-cholesterol in blood serum of ethanol liver-injured animal model. It counts as in vivo, SD rats. As to conditions: EtOH +, 10 mg/kg, mean ± SEM. The method, then: The chlorella ethanol extract (CH) was used. The CH was dissolved in ethanol, and mixed with AlN-76 diet to be a daily intake of 50 mg or 100 mg per kg of a test animal weight and supplied to the animal. Specific pathogen free male SD rats of 5-week-old were purchased from Orient Bio Inc. (Seongnam, South Korea). After inspection and adaptation for 1 week, healthy animals without weight loss were selected and used for the test. Test animals were bred under a condition of temperature: 23±3, relative humidity: 50±10%, air change rate: 10-15 times/hour, lighting time: 12 hours (08:00-20:00) and luminous intensity: 150-300 Lux. During adaptation period of 1 week, the test animals were freely fed with solid feed for test animal (Superfeed Co., Ltd., Wonju, South Korea) and drinking water. After the adaptation period of 1 week, healthy animals were selected, and divided to 5 groups by randomized block design. Namely, those were divided into a control group not treated with ethanol and the test material, a group orally administered with ethanol, a group orally administered with ethanol and fed with CH 50 mg/kg, a group orally administered with ethanol and fed with CH 100 mg/kg and a group orally administered with ethanol and fed with sulforaphane 10 mg/kg. The primary feed used in this experiment, AlN-76 was purchased from Research Diets, Inc. (New Brunswick, N.J., USA), and its composition is listed in Table 1. Test feeds were prepared by mixing each test compounds to the feed to the daily feeding amount of 50 or 100 mg per 1 kg of test animal weight as described above, and fed. […] The feeds containing the test compounds were fed for 10 days after 17th day of the ethanol administration, and the ethanol was orally administered together with the feed continuously. During the test period, drinking water was freely supplied. The feed intake was measured every two days, and body weight was measured every week from the day of starting the oral administration of ethanol (0 day) to the final day of the experiment. […]

Setting [7] is: did not show the significant difference.

For the molecule `C[S+]([O-])CCCCN=C=S` (centres unmarked) [Sulforaphane], in experiment [1], the “CD (concentration of the sample where the quinone reductase activity of the sample-treated cell becomes twice)” value is 1.94 µg/mL and 2.48 µg/mL and 2.07 µg/mL. Moreover, the “serum γ-GT vs group orally administered with ethanol only” value in experiment [2] is reported as “did not show the significant difference”. Besides, the “serum LDH content vs group orally administered with ethanol” value in experiment [2] (with the significant difference) was “decreased”. Further, in experiment [3], the “liver cytosol SOD activity vs ethanol administration group” value was “increased”. For the same molecule, in experiment [3] (setting [7]), the “liver cytosol CAT activity vs ethanol administration group” value is “increased” and the “liver cytosol GPx activity vs group orally administered with ethanol” value was “increased”. Besides, the “total liver cholesterol contents vs group orally administered with ethanol” value in experiment [4] (showed the significant difference) is recorded as “decreased”. Further, in experiment [4] (EtOH +, mean ± SEM), the “Total cholesterol (mg/g liver)” value worked out at 4.39 mg/g liver, the “Total lipid (mg/g liver)” value was 48.26 mg/g liver and the “Triglyceride (mg/g liver)” value is reported as 13.28 mg/g liver. Besides, the “Lipid peroxide (μM/mg protein)” value in experiment [5] is reported as 2.07 μM/mg protein. Further, in experiment [6], the “HDL-cholesterol” value amounted to 33.39 mg/dL, the “Total cholesterol” value was determined as 94.25 mg/dL and the “Triglyceride” value is listed as 126.11 mg/dL.
